For orientation: IC50 means the concentration that inhibits the measured activity by half.

SMILES strings stand for the structures. Where two headings read alike, the source gives them in different places. Positions of bridges follow the written chain, without caps; N, C: chain ends. Non-standard residues stand in square brackets, D forms with d. Residues, ends and D or L forms follow the SMILES beside them. *: point of attachment. X7 = CCCCCCCCCCCCCCCCNC(=O)[C@H](CC(=O)O)NC(=O)CCC(=O)NCCCOCCOCCOCCCN*; Trp(1-CH2COOH) = N[C@@H](Cc1cn(CC(=O)O)c2ccccc12)C(=O)O; X5 = O=C(O)CCCCCCCCCCCCCCCCC(=O)NCCCOCCOCCOCCCN*; Hyp = O=C(O)[C@@H]1C[C@@H](O)CN1; NMeNle = CCCC[C@H](NC)C(=O)O; NMeA = CN[C@@H](C)C(=O)O; Aun = NCCCCCCCCCCC(=O)O; Dab = NCC[C@H](N)C(=O)O; Dap = NC[C@H](N)C(=O)O

This assay concerns the target T1, PD-L1 (Homo sapiens, UniProt Q9NZQ7).
T1 construct: hPDL1(19-239)-TVMV-His; made in house; host or cells: HEK293T
Description: PD-1/PD-L1 Homogenous Time-Resolved Fluorescence (HTRF) binding assay (PD-1-Ig/PD-L1-His). Particulars: inhibition of PD-1-Ig binding to PD-L1-TVMV-His, read-out: HTRF IC50. Summed up:
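Inhibitors pre-incubated 15 min with PD-L1-His (10 nM final), then PD-1-Ig (20 nM final) added for 15 min in dPBS/0.1% BSA/0.05% Tween-20. Eu-cryptate anti-Ig (1 nM) and APC anti-His (20 nM) added, 30 min equilibration, 665/620 nm HTRF ratio read.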
On the technique in general: In TR-FRET formats the signal depends on donor and acceptor labels being close together.

T1 sequence (Q9NZQ7 with tags, fused parts or gaps): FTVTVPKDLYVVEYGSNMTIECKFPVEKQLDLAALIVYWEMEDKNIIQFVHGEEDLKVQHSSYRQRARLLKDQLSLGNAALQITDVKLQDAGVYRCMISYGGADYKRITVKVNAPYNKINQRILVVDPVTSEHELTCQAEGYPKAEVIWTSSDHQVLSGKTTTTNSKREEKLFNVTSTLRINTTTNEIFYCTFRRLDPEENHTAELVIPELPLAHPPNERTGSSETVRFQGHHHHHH

Regarding `CCCCCCCCCCCCCCCCNC(=O)[C@H](CC(=O)O)NC(=O)CCC(=O)NCCCOCCOCCOCCCNC(=O)CNC(=O)[C@@H]1CSCC(=O)N[C@@H](Cc2ccc(O)cc2)C(=O)N(C)[C@@H](C)C(=O)N[C@@H](CC(=O)O)C(=O)N2CCC[C@H]2C(=O)N[C@@H](Cc2cnc[nH]2)C(=O)N[C@@H](CC(C)C)C(=O)N2C[C@H](O)C[C@H]2C(=O)N[C@@H](Cc2c[nH]c3ccccc23)C(=O)N[C@@H](CO)C(=O)N[C@@H](Cc2c[nH]c3ccccc23)C(=O)N(C)[C@@H](CCCC)C(=O)N(C)[C@@H](CCCC)C(=O)N[C@@H](CCCNC(=N)N)C(=O)N1` [Example 11128] ({CH2CO}-Y[NMeA]DPHL[Hyp]WSW[NMeNle][NMeNle]RCG-X7; thioether N-14), the IC50 (value given as range class) was 10 to 99 nM.

In the case of `CCCC[C@H]1C(=O)N(C)[C@@H](CCCC)C(=O)N[C@@H](CC(C)C)C(=O)N[C@H](C(=O)NCCCCCCCCCCC(=O)N[C@@H](CC(=O)O)C(=O)O)CSCC(=O)N[C@@H](Cc2ccc(O)cc2)C(=O)N(C)[C@@H](C)C(=O)N[C@@H](CC(N)=O)C(=O)N2CCC[C@H]2C(=O)N[C@@H](Cc2cnc[nH]2)C(=O)N[C@@H](CCC(=O)O)C(=O)N2C[C@H](O)C[C@H]2C(=O)N[C@@H](Cc2c[nH]c3ccccc23)C(=O)N[C@@H](CCN)C(=O)N[C@@H](Cc2c[nH]c3ccccc23)C(=O)N1C` [Example 11129] ({CH2CO}-Y[NMeA]NPHE[Hyp]W[Dab]W[NMeNle][NMeNle]LC[Aun]D-OH; thioether N-14), the IC50 (value given as range class) lay in the range of 10 to 99 nM.

On to `CCCC[C@H]1C(=O)N(C)[C@@H](CCCC)C(=O)N[C@@H](CC(C)C)C(=O)N[C@H](C(=O)NCCCCCCCCCCC(=O)N[C@@H](CCC(=O)O)C(=O)O)CSCC(=O)N[C@@H](Cc2ccc(O)cc2)C(=O)N(C)[C@@H](C)C(=O)N[C@@H](CC(N)=O)C(=O)N2CCC[C@H]2C(=O)N[C@@H](Cc2cnc[nH]2)C(=O)N[C@@H](CCC(=O)O)C(=O)N2C[C@H](O)C[C@H]2C(=O)N[C@@H](Cc2c[nH]c3ccccc23)C(=O)N[C@@H](CCN)C(=O)N[C@@H](Cc2c[nH]c3ccccc23)C(=O)N1C` [Example 11130] ({CH2CO}-Y[NMeA]NPHE[Hyp]W[Dab]W[NMeNle][NMeNle]LC[Aun]E-OH; thioether N-14), for which the IC50 (value given as range class) was 10 to 99 nM.

`CCCC[C@H]1C(=O)N(C)[C@@H](CCCC)C(=O)N[C@@H](CC(C)C)C(=O)N[C@H](C(=O)NCCCCCCCCCCC(=O)N[C@@H](CCC(=O)O)C(=O)O)CSCC(=O)N[C@@H](Cc2ccc(O)cc2)C(=O)N(C)[C@@H](C)C(=O)N[C@@H](CC(N)=O)C(=O)N2CCC[C@H]2C(=O)N[C@@H](CN)C(=O)N[C@@H](CCC(N)=O)C(=O)N2C[C@H](O)C[C@H]2C(=O)N[C@@H](Cc2c[nH]c3ccccc23)C(=O)N[C@@H](CO)C(=O)N[C@@H](Cc2cn(CC(=O)O)c3ccccc23)C(=O)N1C` [Example 11132] ({CH2CO}-Y[NMeA]NP[Dap]Q[Hyp]WS[Trp(1-CH2COOH)][NMeNle][NMeNle]LC[Aun]E-OH; thioether N-14): the IC50 (value given as range class) was 10 to 99 nM.

With `CCCC[C@H]1C(=O)N(C)[C@@H](CCCC)C(=O)N[C@@H](CC(C)C)C(=O)N[C@H](C(=O)NCCCOCCOCCOCCCNC(=O)CCCCCCCCCCCCCCCCC(=O)O)CSCC(=O)N[C@@H](Cc2ccc(O)cc2)C(=O)N(C)[C@@H](C)C(=O)N[C@@H](CC(N)=O)C(=O)N2CCC[C@H]2C(=O)N[C@@H](CN)C(=O)N[C@@H](CCC(N)=O)C(=O)N2C[C@H](O)C[C@H]2C(=O)N[C@@H](Cc2c[nH]c3ccccc23)C(=O)N[C@@H](CO)C(=O)N[C@@H](Cc2cn(CC(=O)O)c3ccccc23)C(=O)N1C` [Example 11133] ({CH2CO}-Y[NMeA]NP[Dap]Q[Hyp]WS[Trp(1-CH2COOH)][NMeNle][NMeNle]LC-X5; thioether N-14), for the setting “value given as number”, the IC50 worked out at 1570 nM.
